The structures appear in SMILES notation. “Also recorded” adds a separate entry of the source.

The test system of data set [1] is dogs. The note with it: dogs with CCDS; reported in FDA Consumer Magazine 2000; cited from earlier work.
Data set [2] deals with Beagle Dogs. Briefly: Observation of abnormal behavioral responses / behavioral toxicity during study. Particulars: 2, 6 and 20 mg/kg. The class given is in vivo, Canine. From the text:
All dogs received veterinary examinations prior to initiation in the study. Over the course of the study, trained personnel recorded all adverse events and contacted the responsible veterinarian or study director when necessary.
The effect also appeared dependent on baseline activity level, the greater the baseline level the smaller the treatment effect.

Data set [3] deals with Beagle Dogs. Briefly: Day Night Activity (Actiwatch day-night activity rhythms). The class given is in vivo, Canine. The protocol: (§1) Dogs were weighed prior to study initiation. Capsules containing dimebon were prepared for each dog according to weight. The following doses of dimebon were used: 2, 6 and 20 mg/kg. Technicians not otherwise involved in the study prepared the capsules. During the control phase of the study, subjects were administered empty gelatine capsules. The test and control articles were administered to the dogs PO within meatballs of moist dog food once daily. Individual subjects were administered the capsule at the same time on each treatment day.
(§2) The design of the study consisted of four 7 day test blocks (a test block refers to the 3 day washout period combined with the 4 day treatment/testing period). The first test block was a control and no subject received treatment during those seven days. Subsequently, the study then followed a Latin-square design, in which all of the subjects were tested at all the three dose levels of the test article in a different order (see Table 3 below). To accomplish this, the twelve subjects were divided into six groups of two subjects balanced for sex and age to the extent possible.
At the start of the study, an Actiwatch collar was placed on each dog and the collar remained on for the study duration of the study. All behavioral testing followed previously established protocols. […]
To assess changes in activity linked to the treatment condition, hourly activity over a five hour period after dosing was calculated. The data were then analyzed with a repeated measures analysis of variance (ANOVA), with time post dosing (1-5 hours), treatment days (1-4 for each condition) and dose (control, 2, 6, and 20 mg/kg) as within subject variables. […] To examine day night-activity levels, day and night activity levels were calculated for each 24-hr period. The data were first analyzed with a repeated measures ANOVA, with dose (control, 2, 6, and 20 mg/kg), treatment day (1-4 for each condition), and phase (day and night) as within-subject variables. […]
Post-dose activity patterns and twenty-four hour activity rhythms were assessed using the Actiwatch method, which detects alterations in activity and changes in phase of the activity cycle as described previously (Siwak et al. (2003) Circadian Activity Rhythms in Dogs Vary with Age and Cognitive Status. Behavioral Neuroscience, 111:813-824). Briefly, general activity patterns were monitored for 28 continuous days using the Mini-Mitter® Actiwatch-16® activity monitoring system (Mini-Mitter Co., Inc., Bend, Oreg.) adapted for dogs. […]
The day/night activity data were analyzed with a repeated-measures ANOVA, with dose, wash-in day, and phase as within-subject variables and test order as a between-subject variable.

In data set [4] the test system is Beagle Dogs. Kind of data set: General Activity Test (Actiwatch post-dose activity). Particulars: for activity as a function of dose and treatment day: FIG. 2, suggestion of a drug effect. The class given is in vivo, Canine. The protocol: as §1, §2
At the start of the study, an Actiwatch collar was placed on each dog and the collar remained on for the study duration of the study. All behavioral testing followed previously established protocols. For behavioral tests conducted in the open field arena, data analyses were conducted using the DogAct behavioral software (CanCog Technologies Inc., Toronto, ON, Canada). Actiware-Rhythm® software was used to obtain activity counts for the day-night measure.
The Actiwatch data were analyzed to look at both changes in activity pattern temporally linked to treatment and changes in day/night activity.
To assess changes in activity linked to the treatment condition, hourly activity over a five hour period after dosing was calculated. The data were then analyzed with a repeated measures analysis of variance (ANOVA), with time post dosing (1-5 hours), treatment days (1-4 for each condition) and dose (control, 2, 6, and 20 mg/kg) as within subject variables. Test order served as a between subject variable in the initial analysis. To examine day night-activity levels, day and night activity levels were calculated for each 24-hr period. The data were first analyzed with a repeated measures ANOVA, with dose (control, 2, 6, and 20 mg/kg), treatment day (1-4 for each condition), and phase (day and night) as within-subject variables. Once again order served as a between-subject variable.
Post-dose activity patterns and twenty-four hour activity rhythms were assessed using the Actiwatch method, which detects alterations in activity and changes in phase of the activity cycle as described previously (Siwak et al. (2003) Circadian Activity Rhythms in Dogs Vary with Age and Cognitive Status. Behavioral Neuroscience, 111:813-824). Briefly, general activity patterns were monitored for 28 continuous days using the Mini-Mitter® Actiwatch-16® activity monitoring system (Mini-Mitter Co., Inc., Bend, Oreg.) adapted for dogs. The Actiwatch contained an activity sensory that was programmed to provide counts of total activity at 5 minute intervals. Putting the Actiwatch on a dog's collar allowed for recording uninterrupted patterns of activity and rest.
The first analysis of the Actiwatch data was intended to provide an overall picture of the post-dosing effect of the compound on behavioral activity. Accordingly, data for the 5-hour period following dosing was first segregated into 5 one-hour blocks. Thus, each subject's data for each treatment day consisted of 5 consecutive one-hour activity scores. The data were then analyzed with a repeated measures analysis of variance, with time post dosing (1-5 hours), treatment days (1-4 for each condition) and dose (control, 2, 6, and 20 mg/kg) as within subject variables. Test order served as between subject variables in the initial analysis. […]

The test system of data set [5] is Beagle Dogs. Briefly: Curiosity Test (exploratory behavior, open-field arena). The class given is in vivo, Canine. Particulars: for rearing frequency, controls versus dose group: FIG. 10. The protocol:
as §1, §2
After completing the control test block, each group received three doses of the test article in the order prescribed for that group. For each test block, subjects received their respective treatment for the first four days. On the fourth day of each test block, subjects were tested on the curiosity test twice; the first was one hour after article administration and the second was four hours after article administration. The remaining three days were considered washout days for each test block (Table 4).
For the curiosity test, each behavioral measure was analyzed individually using a repeated measures ANOVA with dose (control, 2, 6, and 20 mg/kg), test (first and second) as within-subject variables and order as a between-subject variable.
This is a test of exploratory behavior, which assesses both attention to environment and locomotor activity (Siwak et al. (2001) Effect of Age and Level of Cognitive Function on Spontaneous and Exploratory Behaviors in the Beagle Dog. Learning and Memory, 8:[…].). Subjects were placed in the open-field arena for a 10-minute period. Seven objects were placed in the arena and the subjects were permitted to freely explore the room and the objects.
The open field activity arena consisted of an empty test room (approximately 8′×10′) with strips of electrical tape applied to the floor in a grid pattern of rectangles to facilitate tracking. The floor of the test room was mopped prior to testing and between dogs to reduce olfactory cues from affecting testing. For tests conducted in the open field, the dogs were placed in the test room and their behavior was videotaped over a 10-minute period. On two of the test sessions, subjects were tested for 5 rather than 10 minutes. Accordingly, the data from those two dogs were not included in the initial analysis, which was carried out over all dose levels. However, all dogs were tested on the control and 20 mg/kg dose and a separate analysis was carried out comparing control and high dose treatments.
The movement pattern of the dog within the test room was recorded. In addition, keyboard keys were pressed to indicate the frequency of occurrence of the various behaviors including: sniffing, urinating, grooming, jumping, rearing, inactivity and vocalization. The software also provided a total measure of distance for loco-motor activity.
In addition to general activity, the interactions with the objects (picking-up, contacting, sniffing and urinating on the objects) were assessed and used as measures of exploratory behavior.

The mark [6] stands for this setting: 2, 6 and 20 mg/kg, dihydrochloride.

For the compound `C#CCN(C)[C@H](C)Cc1ccccc1` [Anipryl®], the “fraction of cases in which it does not work” value in data set [1] is given as “about ⅓”.

For the compound `Cc1ccc2c(c1)c1c(n2CCc2ccc(C)nc2)CCN(C)C1.Cl.Cl` [dimebon, 2,8-dimethyl-5-(2-(6-methyl-3-pyridyl)-ethyl)-2,3,4,5-tetrahydro-1H-pyrido(4,3-b)indole dihydrochloride], the behavioral toxicity entry in data set [2] is reported as “nor were there other indications of behavioral toxicity”. Further, the stereotypical behavior result in data set [2] is “None of the dogs showed any stereotypical behavior”. Also, in data set [2] (dihydrochloride), the abnormal behavioral response entry is on record as “None of these results, however, is indicative of an abnormal behavioral response; also recorded: does not cause any obvious abnormal behavioral responses”. In data set [3] (2 mg/kg, FIG. 6, did not achieve statistical significance), the “ratio of day time activity to night time activity” value was “highest”. In data set [3] (20 mg/kg), the “day:night activity ratio” value is “not altered”. Further, the night time activity entry in data set [3] (20 mg/kg) is reported as “increased night time activity”. In addition, the “day/night activity as a function of dose” value in data set [3] (control, 2, 6, 20 mg/kg, did not achieve statistical significance, p=0.158556) is given as “overall dose-dependent increase in activity”. The “activity at 5 hours post-dosing compared to control” value in data set [4] (6 mg/kg PO once daily, FIG. 1) is recorded as “generally higher”; in data set [4] (20 mg/kg PO once daily, FIG. 1), “generally higher”. Moreover, the “activity as a function of dose and treatment day” value in data set [4] (6 mg/kg) and in data set [4] (20 mg/kg) was “increased activity” each time. In addition, the “behavioral activity (summary)” value in data set [4] (setting [6]) is listed as “trend towards an increase in activity with an increase in dosage; also recorded: moderate increase in behavioral activity”. Moreover, the “total activity as a function of dose” value in data set [4] (control, 2, 6, 20 mg/kg, FIG. 3, not statistically significant, p=0.192360) is given as “dose-dependent increase in activity”. The “decrease of activity with time following treatment” value in data set [4] (two highest dose levels, FIG. 1) is on record as “the decrease is smaller”. The “change of rearing frequency over the two tests” value in data set [5] (2 mg/kg) is on record as “decrease in rearing frequency”; in data set [5] (6 mg/kg), “rearing frequency increased over the two tests”; in data set [5] (20 mg/kg), “rearing frequency increased over the two tests”. In addition, the “object sniff frequency compared to control” value in data set [5] (2 mg/kg, p=0.085660, FIG. 14) is “lower occurrence of object sniffing”. Besides, in data set [5] (20 mg/kg), the exploratory behavior entry was “increase in exploratory behavior”. Further, in data set [5] (20 mg/kg compared to 2 mg/kg, p=0.10445, FIG. 12), the “frequency of object pickup” value is recorded as “greater frequency of picking up objects”. Moreover, in data set [5] (20 mg/kg, 4 h after administration), the “locomotor activity on the second curiosity test” value was “increased locomotor activity”. Besides, in data set [5] (20 mg/kg, especially on the second test, FIG. 13), the “object contact duration compared to controls” value is recorded as “increased contact”. Also, in data set [5] (20 mg/kg, manifested by locomotor activity on second curiosity test and night time activity), the duration of action entry was “longest duration of action”. In data set [5] (20 mg/kg, secondary analysis control vs high dose, interaction p=0.098076, FIG. 11), the “change of inactivity over the two tests” value is on record as “decreased over the two tests”. Moreover, the “change of object sniff frequency over the two tests” value in data set [5] (20 mg/kg, secondary analysis, interaction p=0.061260, FIG. 16) was “object sniff frequency increased over the two tests”. Moreover, the “locomotor activity on first and second test” value in data set [5] (20 mg/kg, tests 1 h and 4 h after administration, FIG. 8) is reported as “activity was increased on both tests”. Also, in data set [5] (2, 6 and 20 mg/kg), the “effect on most behaviors in the exploratory behavior test” value was “did not significantly affect most behaviors”. For the same compound, the “exploration (summary of exploratory behavior test)” value in data set [5] (setting [6]) was “generally increased; also recorded: dose-dependent trend towards increased exploration”. In data set [5] (control vs 20 mg/kg only, p=0.086315), the “rearing frequency, dose effect, secondary analysis” value is recorded as “marginally significant effect of dose”. In addition, in data set [5] (control, 2, 6, 20 mg/kg), the “locomotor activity, dose effect (ANOVA)” value is recorded as “not significant”. The “urination frequency, effect of treatment” value in data set [5] (control, 2, 6, 20 mg/kg, FIG. 9) is recorded as “no effects of treatment were found”. Besides, the “rearing frequency, dose effect (ANOVA)” value in data set [5] (control, 2, 6, 20 mg/kg, p=0.000846) is on record as “significant dose effect”. Besides, the “object contact duration, dose effect (ANOVA)” value in data set [5] (control, 2, 6, 20 mg/kg, p=0.001384) is listed as “significant dose effect”. Besides, the “object sniff frequency, dose effect (ANOVA)” value in data set [5] (control, 2, 6, 20 mg/kg, p=0.056856) was “marginally significant effect of dose”. Further, the “object pick-up, dose effect (ANOVA)” value in data set [5] (control, 2, 6, 20 mg/kg, p=0.079968) is recorded as “marginally significant effect of dose”. The “rearing frequency, controls versus dose group” value in data set [5] (high dose group, p=0.025826) is reported as “controls showing significantly less rearing”; in data set [5] (low dose group, p=0.0258), “controls showing significantly less rearing”.

Values taken from patent US20100152225A1, “HYDROGENATED PYRIDO [4,3-B] INDOLES SUCH AS DIMEBON FOR TREATING CANINE COGNITIVE DYSFUNCTION SYNDROME” (priority 2006, published 2010).
